For one test, the target named is T1, Syk (Homo sapiens, UniProt P43405).
T1 construct: purchased Cama Biosciences (so in the source)
In words: Syk HTRF Assay. Format: biochemical. On the procedure:
5 μl/well DMSO is added to Column 2 Wells A-0 and 29.5 μl to well P2 of Greiner 384-well polypropylene plate. 20 μl/well DMSO is added to Columns 1 and 3-12.
25 mM compound solutions are prepared by the addition of 25 μl of 30 mM compound to Column 2 and 0.5 μl 30 mM reference control to well P2.
Serial dilution is then performed by the following steps: (i) compounds in Column 2 are mixed by pipetting 20 μl up and down 6×; (ii) 10 μl/well compounds in DMSO are transferred from one column to the next column for Columns 2-11; (iii) wells are mixed by pipetting 20 μl up and down 6×; (iv) tips washed 3×25 μl DMSO, 2×25 μl next DMSO.
The following buffers are prepared:
Dilution Buffer: 50 mM HEPES pH 7.6; 1 mM DTT; 10 mM MgCl2; 0.01% Triton X100; 0.01% BSA; 0.1 mM EDTA.
Enzyme Mix in Dilution Buffer: 8.621 ng/ml Syk (Cama Biosciences 08-176).
Start Mix in Dilution Buffer: 87.5 μM ATP; 80 nM Substrate Peptide (American Peptide Company 332722).
14.5 μl/well Enzyme Mix or Dilution Buffer (Background Controls) is added to Costar 384-well black plates.
Compound addition and mixture is performed by the following steps: (i) 0.5 μl/well DMSO/compounds in DMSO transferred from Greiner 384-well polypropylene plate to left half of assay plate containing 14.5 μl/well Enzyme Mix and Dilution Buffer; (ii) Mix by pipetting 10 μl up and down 4×; (iii) tips are washed 4×10 μl in DMSO, 2×20 μl in other DMSO; (iv) steps i-iii are repeated with transfer to right half of assay plate; (v) steps i-iv are repeated with each compound/assay plate until all plates are completed.
10 μl/well Start Mix is added and incubated at room temperature on shaker for 2 minutes (1 hour total reaction time).
Stop Solution in Dilution Buffer: 120 mM EDTA
Antibody Mix in Dilution Buffer: 4.86 μg/ml DyLight 647 Streptavidin (Pierce 21824); 1 μg/ml Lance Eu-Anti-Phosphotyrosine (PerkinElmer AD0069).
5 μl/well[…] is added and incubated at room temperature on shaker for 2 minutes.
[…] Antibody Mix is added and Incubated at room temperature on shaker for 2 minutes (4 hours to overnight total time).
Plates are read at 665 nm and 620 nm emission on Analyst GT protocol HTRF_SP_A or EnVision protocol Steve's TR-FRET.
On the technique in general: Time-resolved FRET reads energy transfer from a long-lived donor to a nearby acceptor.

The target of another test is mTOR (Homo sapiens, UniProt P42345). Kind of test: mTOR HTR-FRET Assay. Format: biochemical. In a few lines: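 TOR enzyme fraction preincubated 30 min at room temperature with compound, then reaction started with GST-p70S6 kinase fragment substrate (97 nM working stock) plus ATP/Mn2+ and run 2 h at room temperature in Tris pH 7.4 buffer. Stopped with EDTA; phospho-substrate detected by HTRF antibody reagent after 5 h to overnight.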

pIC50: −log10 of the molar value.

Broadly, the pIC50 is the IC50 on a negative log10 scale, so that one unit is a factor of ten. High values mean a low IC50, low ones a high IC50. Take `COc1ccccc1-n1c(=O)[nH]c2c(C(N)=O)nc(-c3ccc(O)cc3)nc21` [Compound 8, 2-(4-hydroxyphenyl)-9-(2-methoxyphenyl)-8-oxo-8,9-dihydro-7H-purine-6-carboxamide]: the pIC50 against Syk is below 4.52; against mTOR, 5.00 to 5.29.

Regarding `NC(=O)c1nc(-c2cccnc2)nc2c1[nH]c(=O)n2[C@H]1CC[C@H](O)CC1` [Compound 50, 9-(trans-4-Hydroxycyclohexyl)-8-oxo-2-(pyridin-3-yl)-8,9-dihydro-7H-purine-6-carboxamide], on mTOR, the pIC50 was 5.30 to 7.00. As to `COc1ccccc1-n1c(=O)[nH]c2c(C(N)=O)nc(-c3ccnc(O)c3)nc21` [Compound 13, 2-(2-hydroxypyridin-4-yl)-9-(2-methoxyphenyl)-8-oxo-8,9-dihydro-7H-purine-6-carboxamide], the pIC50 on Syk and on mTOR was below 4.52 in each case.
